Converted amounts (≈) assume the structure as drawn.
Tests used:
[1] = test system: Staphylococcus aureus; experiment: Antibacterial activity against methicillin-resistant Staphylococcus aureus assessed as bacterial growth inhibition; format: functional
[2] = test system: MDA-MB-231; experiment: Antiproliferative activity against human MDA-MB-231 cells assessed as inhibition of cell growth; format: functional, cell-based
[3] = test system: ME-180; experiment: Antiproliferative activity against human ME-180 cells assessed as inhibition of cell growth by [3H]-thymidine incorporation based liquid scintillation counter analysis; format: functional
[4] = test system: ME-180; experiment: Antiproliferative activity against human ME-180 ells assessed as inhibition of cell growth; format: functional, cell-based
[5] = test system: A2780; experiment: Antiproliferative activity against human A2780 cells assessed as inhibition of cell growth measured after 72 hrs by SRB assay; format: functional, cell-based; conditions: A2780, 72 h
[6] = Antiproliferative activity against human A2774 cells assessed as inhibition of cell growth measured after 72 hrs by XTT assay; format: functional
[7] = Antiproliferative activity against human U87MG Human EGFR vIII cells assessed as inhibition of cell growth measured after 24 hrs by MTT assay; format: functional
[8] = Antiproliferative activity against human UM-SCC-38 cells assessed as inhibition of cell growth; format: functional, cell-based
[9] = test system: PC-3; experiment: Antiproliferative activity against human PC-3 cells assessed as inhibition of cell growth measured after 24 hrs by MTT assay; format: functional
[10] = test system: SCL-1; experiment: Induction of apoptosis in human SCL-1 cells by flow cytometry assay; format: functional; conditions: read-out: MEC
[11] = test system: HT-29; experiment: Antiproliferative activity against human HT-29 cells assessed as inhibition of cell growth measured after 48 hrs by MTT assay; format: functional
[12] = test system: Y79; experiment: Antiproliferative activity against human Y79 cells assessed as inhibition of cell growth measured after 72 hrs by MTT assay; format: functional
[13] = test system: A-375; experiment: Antiproliferative activity against human A-375 cells assessed as inhibition of cell growth measured after 24 hrs by WST-8 assay; format: functional
[14] = test system: MOLM-13; experiment: Antiproliferative activity against human MOLM-13 cells assessed as inhibition of cell growth measured after 96 hrs by WST-8 assay; format: functional
[15] = test system: MCF7; experiment: Antiproliferative activity in human MCF7 cells assessed as cell growth inhibition measured after 72 hrs by cell counting assay; format: functional
[16] = test system: NB-4; experiment: Antiproliferative activity against human NB-4 cells assessed as inhibition of cell growth measured after 96 hrs by MTT assay; format: functional
[17] = test system: ME-180; experiment: Antiproliferative activity against human ME-180 cells assessed as inhibition of cell growth; format: functional
[18] = test system: HL-60; experiment: Antiproliferative activity against human HL-60 cells assessed as cell growth inhibition measured after 72 hrs by trypan blue staining based assay; format: functional

**Q.** For `O=C(O)/C=C/c1ccc(-c2ccc(O)c(C34CC5CC(CC(C5)C3)C4)c2)cc1` [ADAROTENE], which MIC [1] is on record?
**A.** 1 µg/mL (≈ 2.67 µM)

**Q.** Which IC50 [2] does the source give for `CC1=C(/C=C/C(C)=C/C=C/C(C)=C/C(=O)Nc2ccc(F)cc2)C(C)(C)CCC1n1ccnc1` (stereo unspecified) here?
**A.** 890 nM

**Q.** For `CC(/C=C/C=C(\C)c1cc(C(C)(C)C)cc(C(C)(C)C)c1)=C\C(=O)O`, which IC50 [3] is on record?
**A.** 1 nM

**Q.** Which IC50 [4] does the source give for `C/C(=C/C=C/C(C)=C/C(=O)O)c1cc(C(C)(C)C)cc(C(C)(C)C)c1` here?
**A.** 20 nM

**Q.** With `O=C(O)c1ccc(-c2ccc3cc(O)c(C45CC6CC(CC(C6)C4)C5)cc3c2)cc1` as the compound, how does the MIC [1] read?
**A.** 1 µg/mL (≈ 2.51 µM)

**Q.** For `O=C(O)c1ccc2cc(-c3ccc(O)c(C45CC6CC(CC(C6)C4)C5)c3)ccc2c1` [O-DEMETHYLATED ADAPALENE], which MIC [1] is on record?
**A.** 1 µg/mL (≈ 2.51 µM)

**Q.** With `CC1=C(/C=C/C(C)=C/C=C/C(C)=C/C(=O)Nc2ccc(O)cc2)C(C)(C)CC/C1=N\OCC(=O)O` as the compound, how does the IC50 [5] read?
**A.** 970 nM

**Q.** Which GI50 [2] does the source give for `CCCC(=O)OCc1ccc(OC(=O)/C=C(C)/C=C/C=C(C)/C=C/C2=C(C)CCCC2(C)C)cc1` here?
**A.** 10 nM

**Q.** With `CC1=C(/C=C/C(C)=C/C=C/C(C)=C/C(=O)O)C(C)(C)CCC1` [TRETINOIN] as the compound, how does the CC50 [6] read?
**A.** 82 nM

**Q.** What about the MCC [7] of the same compound?
**A.** 40 µM

**Q.** What about the IC50 [8] of the same compound?
**A.** 5000 nM

**Q.** And the CC50 [9]?
**A.** 12700 nM

**Q.** And the minimal effective concentration [10]?
**A.** ≤ 10 µM

**Q.** And the CC50 [11]?
**A.** 4300 nM

**Q.** And the MCC [12]?
**A.** 2000 nM

**Q.** And the MCC [13]?
**A.** > 100 µM

**Q.** And the CC50 [14]?
**A.** 1240 nM

**Q.** And the CC50 [15]?
**A.** 20 nM

**Q.** And the CC50 [16]?
**A.** 1500 nM

**Q.** And the CC50 [17]?
**A.** 80 nM

**Q.** And the CC50 [18]?
**A.** 23 nM
